Laboratory results published in paper PMC9121888 (Pharmacology Research & Perspectives, 2022).
Like-named read-outs stand apart in the source and are kept apart here.

Key:
[1] = Study 2 plasma pharmacokinetics of verinurad; assay type: in vivo, human; conditions: healthy non-Asian participants; for Tmax: median (range); for half-life: read-out: t½λz (converted)
Protocol: (§1) Study 2 was a Phase 1, randomized, open‐label study comprising of three parts. Parts 1 and 2 assessed the pharmacokinetics and pharmacodynamics of single and multiple doses of verinurad, respectively (Figure 1). Part 3 assessed the effect of food on the pharmacokinetics and pharmacodynamics of verinurad and is not reported further herein. In the single‐dose assessment, […] were randomized 1:1:1:1:1:1 into 1 of 6 treatment sequences with a single dose of 4.5, 6, or 12 mg verinurad, administered on days 1, 5, and 9 (Figure 1). In the multiple‐dose assessment, 8 participants received 12 mg verinurad QD on days 1 to 7.
(§2) In both studies, participants received verinurad capsules with an extended‐release profile. On the days of pharmacokinetic sampling, treatment was given in fasting state.
Verinurad plasma samples were analyzed using similar methodologies as described by Shen et al.[13] with lower and upper limits of quantification of 0.100 ng/mL and 40.0 ng/mL, respectively. The ability to dilute overrange samples was also confirmed. […].
(§3) Pharmacokinetics and pharmacodynamics were assessed in all participants who received ≥1 dose of study drug and had ≥1 corresponding assessment.

[2] = parameters: method as in PMID 29950814; conditions: cited from earlier work
[3] = Study 2 (NCT02608710) safety: adverse events, laboratory, vital signs, ECG; assay type: in vivo, human
Protocol: as §1
(§4) Analysis of safety was based on adverse events (AEs), laboratory assessments (including hematology, clinical chemistry, urinalysis, and coagulation), vital signs (systolic and diastolic blood pressure, and pulse rate), electrocardiogram (ECG), and physical examination. AEs were coded using the Medical Dictionary for Regulatory Activities. In Study 1, a treatment‐emergent AE was defined as an AE with onset (start date/time) after the first dose of study drug in the run‐in period (day –7). In Study 2, AEs were recorded from the time the participant signed the informed consent through to the follow‐up visit. ECGs were obtained after the participant rested in the supine position. Digital ECG analysis in Study 1 was performed at the AstraZeneca ECG Center.
(§5) Safety was assessed in the safety analysis set of each study, comprising all participants who received ≥1 dose of study drug. Continuous variables are summarized using descriptive statistics, and categorical variables are summarized as frequency and proportion.

[4] = parameters: method as in PMID 29949102; conditions: cited from earlier work
[5] = system: serum uric acid (sUA) and urinary uric acid (uUA); test: Study 2 pharmacodynamics: serum and urinary uric acid; assay type: in vivo, human; conditions: healthy non-Asian participants
Protocol: as §1
Key pharmacodynamic parameters included time‐matched percentage change from baseline (day –1) at each timepoint in sUA concentration, maximum observed percentage change from baseline (time‐matched, day –1) in sUA concentration (Emax,CB) and time to Emax,CB, amount of UA recovered in urine (Aeur), and fractional excretion of UA (FEUA).
as §3

[6] = parameters: method as in PMID 30334639; conditions: patients with gout, 1 Japanese study and 1 Western study; cited from earlier work
[7] = Study 1 (NCT03836599) safety: adverse events, laboratory, vital signs, ECG; assay type: in vivo, human; conditions: Study 1, up to 24 mg verinurad + 300 mg allopurinol
Text: (§6) Cohort 1 was randomized, double‐blind, and placebo‐controlled and consisted of 12 healthy Asian participants, of whom <50% were Chinese. Cohort 2 was open‐label, consisting of 9 healthy Chinese participants.
as §4, §5

[8] = Study 1 plasma pharmacokinetics of verinurad, allopurinol and oxypurinol; assay type: in vivo, human; conditions: for Tmax: median (range); for Cmax / AUC: geometric mean (gCV%)
Protocol: as §6, §2
Verinurad plasma samples were analyzed using similar methodologies as described by Shen et al.[13] with lower and upper limits of quantification of 0.100 ng/mL and 40.0 ng/mL, respectively.

[9] = multiple-dose assessment 12 mg verinurad QD, Day 7, geometric mean (gCV%)
[10] = single dose 6 mg verinurad, geometric mean (gCV%)
[11] = single dose 12 mg verinurad, geometric mean (gCV%)
[12] = healthy Japanese male participants, day 6 after QD dosing with 15 mg verinurad modified-release formulation
[13] = multiple-dose assessment, 12 mg verinurad QD (n = 8)
[14] = single-dose assessment, 4.5 mg verinurad (n = 16)
[15] = single-dose assessment, 6 mg verinurad (n = 16)
[16] = single-dose assessment, 12 mg verinurad (n = 16)
[17] = single dose 15 mg verinurad, moderate renal impairment
[18] = single dose 15 mg verinurad, severe renal impairment
[19] = single dose, mild renal impairment
[20] = 12 mg verinurad QD, day 1, 3 to 6 h post-dose
[21] = 12 mg verinurad QD, day 7, 3 to 6 h post-dose
[22] = single dose 4.5 mg verinurad, 3 to 6 h post-dose
[23] = single dose 6 mg verinurad, 3 to 6 h post-dose
[24] = single dose 12 mg verinurad, 3 to 6 h post-dose
[25] = healthy Asian participants, 24 mg verinurad + 300 mg allopurinol QD, Day 7
[26] = healthy Chinese participants, 12 mg verinurad + 300 mg allopurinol day 1 and QD days 3-9, Day 9, arithmetic mean (SD)
[27] = healthy Chinese participants, 12 mg verinurad + 300 mg allopurinol, Day 1, arithmetic mean (SD)

SMILES: CC(C)(Sc1ccncc1-c1ccc(C#N)c2ccccc12)C(=O)O [verinurad]
- CL/F ([1]; multiple-dose assessment 12 mg verinurad QD, Day 1, geometric mean (gCV%)): 52.2 (20.2) L/h
- Tmax ([1]; multiple-dose assessment 12 mg verinurad QD, Day 1): 5.00 (2.00–6.00) h
- CL/F [1, 9]: 44.2 (27.3) L/h
- t½λz [1, 9]: 10.9 (19.1) h
- CL/F ([1]; single dose 4.5 mg verinurad, geometric mean (gCV%)): 51.8 (27.9) L/h
- Tmax ([1]; single dose 4.5 mg verinurad): 4.00 (2.00–6.00) h
- CL/F [1, 10]: 58.8 (40.5) L/h
- Cmax [1, 10]: 13.4 (67.6) ng/mL
- Tmax ([1]; single dose 6 mg verinurad): 4.00 (2.00–6.05) h
- CL/F [1, 11]: 58.3 (44.4) L/h
- t½λz [1, 11]: 12.2 (67.7) h
- Tmax ([1]; single dose 12 mg verinurad): 4.00 (2.00–6.00) h
- AUC ([1]; human, plasma, oral, 4.5 mg, single dose 4.5 mg verinurad, geometric mean (gCV%), read-out: AUC): 86.8 ng·h/mL
- AUC ([1]; human, plasma, oral, 4.5 mg, single dose 4.5 mg verinurad, geometric mean (gCV%), read-out: AUCτ): 68.1 ng·h/mL
- Cmax ([1]; human, plasma, oral, 4.5 mg, single dose 4.5 mg verinurad, geometric mean (gCV%), read-out: Cmax): 11.8 ng/mL
- AUC ([1]; human, plasma, oral, 6 mg, single dose 6 mg verinurad, geometric mean (gCV%), read-out: AUC): 102 ng·h/mL
- AUC ([1]; human, plasma, oral, 6 mg, single dose 6 mg verinurad, geometric mean (gCV%), read-out: AUCτ): 80.8 ng·h/mL
- AUC ([1]; human, plasma, oral, 12 mg, multiple-dose assessment 12 mg verinurad QD, Day 1, geometric mean (gCV%), read-out: AUC): 230 ng·h/mL
- AUC ([1]; human, plasma, oral, 12 mg, multiple-dose assessment 12 mg verinurad QD, Day 1, geometric mean (gCV%), read-out: AUCτ): 209 ng·h/mL
- Cmax ([1]; human, plasma, oral, 12 mg, multiple-dose assessment 12 mg verinurad QD, Day 1, geometric mean (gCV%), read-out: Cmax): 29.9 ng/mL
- AUC ([1]; human, plasma, oral, 12 mg, multiple-dose assessment 12 mg verinurad QD, Day 7, geometric mean (gCV%), read-out: AUCτ): 271 ng·h/mL
- Cmax ([1]; human, plasma, oral, 12 mg, multiple-dose assessment 12 mg verinurad QD, Day 7, geometric mean (gCV%), read-out: Cmax): 36.3 ng/mL
- AUC ([1]; human, plasma, oral, 12 mg, single dose 12 mg verinurad, geometric mean (gCV%), read-out: AUC): 206 ng·h/mL
- AUC ([1]; human, plasma, oral, 12 mg, single dose 12 mg verinurad, geometric mean (gCV%), read-out: AUCτ): 168 ng·h/mL
- Cmax ([1]; human, plasma, oral, 12 mg, single dose 12 mg verinurad, geometric mean (gCV%), read-out: Cmax): 28.6 ng/mL
- AUC ([1]; human, plasma, oral, 12 mg, single dose of verinurad 4.5, 6, or 12 mg, read-out: geometric mean AUCτ, range over doses): 68.1 to 168 ng·h/mL
- Cmax ([1]; human, plasma, oral, 12 mg, single dose of verinurad 4.5, 6, or 12 mg, read-out: geometric mean Cmax, range over doses): 11.8 to 28.6 ng/mL
- half-life ([1]; human, plasma, oral, multiple-dose assessment 12 mg verinurad QD, Day 1, geometric mean (gCV%)): 7.15 h
- Tmax ([1]; human, plasma, oral, multiple-dose assessment 12 mg verinurad QD, Day 7, read-out: tmax): 6 h
- half-life ([1]; human, plasma, oral, single dose 4.5 mg verinurad, geometric mean (gCV%)): 12.7 h
- half-life ([1]; human, plasma, oral, single dose 6 mg verinurad, geometric mean (gCV%)): 13.6 h
- accumulation for AUC ([2]; after QD doses): 1.3 fold
- accumulation for Cmax ([2]; after QD doses): ~ 1.2 fold
- AUCτ [2, 12]: 239 ng·h/mL
- Cmax [2, 12]: 38.2 ng/mL
- diarrhea, participants ([3]; human, in vivo): 2
- findings in laboratory parameters, vital signs, 12-lead ECG variables ([3]; in vivo): No clinically significant findings
- Death, Events [3, 13]: 0 Events
- Death, n (%) [3, 13]: 0 n (%)
- Death, Events [3, 14]: 0 Events
- Death, n (%) [3, 14]: 0 n (%)
- Death, Events [3, 15]: 0 Events
- Death, n (%) [3, 15]: 0 n (%)
- Death, Events [3, 16]: 0 Events
- Death, n (%) [3, 16]: 0 n (%)
- AUC increase compared with normal renal function [4, 17]: 148%
- Cmax increase compared with normal renal function [4, 17]: 73%
- AUC increase compared with normal renal function [4, 18]: 130%
- Cmax increase compared with normal renal function [4, 18]: 128%
- AUC increase compared with normal renal function [4, 19]: 24%
- Cmax increase compared with normal renal function [4, 19]: 53%
- tEmax,CB, mean (SD) ([5]; 12 mg verinurad QD, Day 1): 9.0 (1.0) hour
- tEmax,CB, mean (SD) ([5]; 12 mg verinurad QD, Day 7): 7.0 (3.0) hour
- mean Aeur at peak, higher compared with day –1 [5, 20]: 353%
- mean FEUA at peak [5, 20]: 33.3%
- mean Aeur at peak, higher compared with day –1 [5, 21]: 81.3%
- mean FEUA at peak [5, 21]: 31.2%
- tEmax,CB, mean (SD) ([5]; single dose 4.5 mg verinurad): 8.0 (2.1) hour
- mean Aeur at peak, higher compared with day –1 [5, 22]: 219%
- mean FEUA at peak [5, 22]: 21.5%
- tEmax,CB, mean (SD) ([5]; single dose 6 mg verinurad): 8.0 (2.0) hour
- mean Aeur at peak, higher compared with day –1 [5, 23]: 267%
- mean FEUA at peak [5, 23]: 24.8%
- tEmax,CB, mean (SD) ([5]; single dose 12 mg verinurad): 9.0 (1.5) hour
- mean Aeur at peak, higher compared with day –1 [5, 24]: 338%
- mean FEUA at peak [5, 24]: 33.3%
- verinurad exposure, higher than in Western patients [6]: > 2 fold
- tolerability [7]: well tolerated
- CL/F ([8]; healthy Asian participants, 24 mg verinurad + 300 mg allopurinol QD, Day 1, arithmetic mean (SD)): 48.6 (11.3) L/h
- Tmax ([8]; healthy Asian participants, 24 mg verinurad + 300 mg allopurinol QD, Day 1): 5.00 (4.98–6.02) h
- CL/F ([8]; healthy Asian participants, 24 mg verinurad + 300 mg allopurinol QD, Day 7, arithmetic mean (SD)): 50.9 (9.01) L/h
- Cmax [8, 25]: 73.6 (29.0) ng/mL
- Tmax [8, 25]: 5.00 (4.00–6.00) h
- CL/F [8, 26]: 47.9 (17.2) L/h
- t½λz [8, 26]: 6.27 (0.647) h
- CL/F [8, 27]: 43.4 (16.2) L/h
- t½λz [8, 27]: 12.9 (3.08) h
- Tmax ([8]; healthy Chinese participants, 12 mg verinurad + 300 mg allopurinol, Day 1): 5.00 (4.00–6.00) h
- half-life ([8]; human, plasma, oral, healthy Asian participants, 24 mg verinurad + 300 mg allopurinol QD, Day 1, arithmetic mean (SD), read-out: t½λz (converted)): 5.98 h
- AUC ([8]; human, plasma, oral, healthy Asian participants, 24 mg verinurad + 300 mg allopurinol QD, Day 1, read-out: AUC): 506 ng·h/mL
- AUC ([8]; human, plasma, oral, healthy Asian participants, 24 mg verinurad + 300 mg allopurinol QD, Day 1, read-out: AUCτ): 415 ng·h/mL
- Cmax ([8]; human, plasma, oral, healthy Asian participants, 24 mg verinurad + 300 mg allopurinol QD, Day 1, read-out: Cmax): 71.2 ng/mL
- AUC ([8]; human, plasma, oral, healthy Asian participants, 24 mg verinurad + 300 mg allopurinol QD, Day 7, read-out: AUCτ): 478 ng·h/mL
- AUC ([8]; human, plasma, oral, healthy Chinese participants, 12 mg verinurad + 300 mg allopurinol day 1 and QD days 3-9, Day 9, read-out: AUCτ): 264 ng·h/mL
- Cmax ([8]; human, plasma, oral, healthy Chinese participants, 12 mg verinurad + 300 mg allopurinol day 1 and QD days 3-9, Day 9, read-out: Cmax): 42 ng/mL
- Tmax ([8]; human, plasma, oral, healthy Chinese participants, 12 mg verinurad + 300 mg allopurinol day 1 and QD days 3-9, Day 9, read-out: tmax): 5.5 h
- AUC ([8]; human, plasma, oral, healthy Chinese participants, 12 mg verinurad + 300 mg allopurinol, Day 1, read-out: AUC): 295 ng·h/mL
- AUC ([8]; human, plasma, oral, healthy Chinese participants, 12 mg verinurad + 300 mg allopurinol, Day 1, read-out: AUCτ): 226 ng·h/mL
- Cmax ([8]; human, plasma, oral, healthy Chinese participants, 12 mg verinurad + 300 mg allopurinol, Day 1, read-out: Cmax): 47.6 ng/mL
